Laboratory results: ChEMBL document CHEMBL5143618, “Design, synthesis, and antitumor activity evaluation of novel acyl sulfonamide spirodienones” (Bioorg Med Chem, 2022)
The source made the active and inactive calls. The calls are words filed in the database; no cut-off is given here.

Experiments:
[1] = system: 4T1; assay: Antitumor activity against mouse 4T1 cells inoculated orthotopic mouse assessed as apoptotic cells in tumor tissue by TUNEL assay (reference value: 3.13%); assay type: functional
[2] = Toxicity in orthotopic mouse inoculated with mouse 4T1 cells assessed as hardened skin at 10 mg/kg, ip administered every day measured after 8 days; assay type: organism-based; settings: in vivo, 192 h, time 8 day
[3] = system: 4T1; assay: Antitumor activity against mouse 4T1 cells inoculated orthotopic mouse assessed as reduction in tumor volume at 10 mg/kg, ip administered every day measured after 14 days (reference value: 623 mm3); assay type: functional; settings: time 14 day
[4] = system: 4T1; assay: Antitumor activity against mouse 4T1 cells inoculated orthotopic mouse assessed as decrease in tumor weight at 10 mg/kg, ip administered every day measured after 14 days; assay type: functional, organism-based; settings: time 14.0 day
[5] = system: 4T1; assay: Antitumor activity against mouse 4T1 cells inoculated orthotopic mouse assessed as change in gross appearance of tumor at 10 mg/kg, ip administered every day measured after 14 days; assay type: functional, organism-based; settings: time 14.0 day
[6] = Toxicity in orthotopic mouse inoculated with mouse 4T1 cells assessed as body weight loss at 10 mg/kg, ip administered every day measured after 14 days; assay type: organism-based; settings: in vivo, 336 h, time 14 day
[7] = system: 4T1; assay: Antitumor activity against mouse 4T1 cells inoculated orthotopic mouse assessed as tumor growth inhibition ratio at 10 mg/kg, ip administered every day measured after 14 days; assay type: functional; design: scale not given: the % may be the effect or the level left; settings: time 14 day
[8] = Toxicity in orthotopic mouse inoculated with mouse 4T1 cells assessed as sparse and dull hair at 10 mg/kg, ip administered every day measured after 8 days; assay type: organism-based; settings: in vivo, 192 h, time 8 day
[9] = Toxicity in orthotopic mouse inoculated with mouse 4T1 cells assessed as liver cell swelling at 10 mg/kg, ip administered every day measured after 14 days by hematoxylin and eosin staining based assay; assay type: organism-based; settings: in vivo, 336 h, time 14 day
[10] = system: MDA-MB-231; assay: Antiproliferative activity against human MDA-MB-231 cells assessed as inhibition of cell growth; assay type: functional, cell-based
[11] = system: A549; assay: Antiproliferative activity against human A549 cells assessed as inhibition of cell growth; assay type: functional, cell-based
[12] = system: HeLa; assay: Antiproliferative activity against human HeLa cells assessed as inhibition of cell growth; assay type: functional, cell-based

IC50 [10] [nM] | IC50 [11] [nM] | IC50 [12] [nM] | Structure (SMILES) | Activity [1] [%] | Activity [2] | Activity [3] [mm3] | Activity [4] | Activity [5] | Activity [6] [%] | Activity [7] [%] | Activity [8] | Activity [9]
– | – | – | COc1cccc2c1C(=O)c1c(O)c3c(c(O)c1C2=O)C[C@@](O)(C(=O)CO)C[C@@H]3O[C@H]1C[C@H](N)[C@H](O)[C@H](C)O1 [DOXORUBICIN] | 82.57 | Toxic | 265 | Active | Active | 19 | 50 | Toxic | Toxic
390 | 330 | 710 | Cc1ccc(S(=O)(=O)N2CCOC23C=CC(=O)C=C3)cc1 | – | – | – | – | – | – | – | – | –
